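Following 48 hours of exposure in 96-well plates, responses at five concentrations were used to interpolate endpoints linearly. TGI marks complete inhibition of growth.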
Tests used:
Test in all cases: inhibition of tumour cell growth, NCI panel, 48 h
UACC-257 melanoma = system: UACC-257 melanoma
NCI-H23 lung = system: NCI-H23 lung
MDA-MB-435 = system: MDA-MB-435
HOP-92 NSCLC = system: HOP-92 NSCLC
SK-OV-3 ovarian = system: SK-OV-3 ovarian
DU-145 prostate = system: DU-145 prostate
SF-295 CNS = system: SF-295 CNS
786-0 renal = system: 786-0 renal
ACHN renal = system: ACHN renal
SK-MEL-2 melanoma = system: SK-MEL-2 melanoma
SR leukemia = system: SR leukemia
CAKI-1 renal = system: CAKI-1 renal
CCRF-CEM leukemia = system: CCRF-CEM leukemia
BT-549 breast = system: BT-549 breast
NCI-H226 lung = system: NCI-H226 lung
HCT-116 colon = system: HCT-116 colon
KM12 colon = system: KM12 colon
NCI-H522 lung = system: NCI-H522 lung
HCT-15 colon = system: HCT-15 colon
LOX IMVI melanoma = system: LOX IMVI melanoma
OVCAR-3 ovarian = system: OVCAR-3 ovarian
MALME-3M melanoma = system: MALME-3M melanoma
SNB-75 CNS = system: SNB-75 CNS
NCI-H460 lung = system: NCI-H460 lung
RXF 393 renal = system: RXF 393 renal
UACC-62 melanoma = system: UACC-62 melanoma
SF-539 CNS = system: SF-539 CNS
HT29 colon = system: HT29 colon
SN12C renal = system: SN12C renal
K-562 leukemia = system: K-562 leukemia
A498 renal = system: A498 renal
SK-MEL-28 melanoma = system: SK-MEL-28 melanoma
M14 melanoma = system: M14 melanoma
NCI/ADR-RES ovarian = system: NCI/ADR-RES ovarian
T-47D breast = system: T-47D breast
RPMI-8226 leukemia = system: RPMI-8226 leukemia
A549 NSCLC = system: A549 NSCLC
OVCAR-5 ovarian = system: OVCAR-5 ovarian
SF-268 CNS = system: SF-268 CNS
U251 CNS = system: U251 CNS
HL-60(TB) leukemia = system: HL-60(TB) leukemia
PC-3 prostate = system: PC-3 prostate
MCF7 breast = system: MCF7 breast
MDA-N = system: MDA-N
UO-31 renal = system: UO-31 renal
HS 578T breast = system: HS 578T breast
EKVX NSCLC = system: EKVX NSCLC
SK-MEL-5 melanoma = system: SK-MEL-5 melanoma
IGROV1 ovarian = system: IGROV1 ovarian
HOP-62 NSCLC = system: HOP-62 NSCLC
TK-10 renal = system: TK-10 renal
COLO 205 colon = system: COLO 205 colon
SW-620 colon = system: SW-620 colon
HCC-2998 colon = system: HCC-2998 colon
MDA-MB-231 breast = system: MDA-MB-231 breast
MOLT-4 leukemia = system: MOLT-4 leukemia
OVCAR-8 ovarian = system: OVCAR-8 ovarian
OVCAR-4 ovarian = system: OVCAR-4 ovarian
SNB-19 CNS = system: SNB-19 CNS

Compound: CC1=CCC[C@@H]2[C@@](C)(Cc3cc(O)ccc3O)[C@H](C)CC[C@@]12C
- TGI (UACC-257 melanoma): 26.2 µM
- TGI (NCI-H23 lung): 14.1 µM
- TGI (MDA-MB-435): 19.5 µM
- TGI (HOP-92 NSCLC): 15.2 µM
- TGI (SK-OV-3 ovarian): 26 µM
- TGI (DU-145 prostate): 27.1 µM
- TGI (SF-295 CNS): 20 µM
- TGI (786-0 renal): 21.7 µM
- TGI (ACHN renal): 18 µM
- TGI (SK-MEL-2 melanoma): 27.9 µM
- TGI (SR leukemia): 12.6 µM
- TGI (CAKI-1 renal): 25.7 µM
- TGI (CCRF-CEM leukemia): 15.1 µM
- TGI (BT-549 breast): 13.1 µM
- TGI (NCI-H226 lung): 39.3 µM
- TGI (HCT-116 colon): 18.8 µM
- TGI (KM12 colon): 16.4 µM
- TGI (NCI-H522 lung): 14.1 µM
- TGI (HCT-15 colon): 16 µM
- TGI (LOX IMVI melanoma): 17.7 µM
- TGI (OVCAR-3 ovarian): 15.3 µM
- TGI (MALME-3M melanoma): 33.1 µM
- TGI (SNB-75 CNS): 17.9 µM
- TGI (NCI-H460 lung): 22.4 µM
- TGI (RXF 393 renal): 17.1 µM
- TGI (UACC-62 melanoma): 25.1 µM
- TGI (SF-539 CNS): 18.4 µM
- TGI (HT29 colon): 42.7 µM
- TGI (SN12C renal): 27 µM
- TGI (K-562 leukemia): 36 µM
- TGI (A498 renal): 32.7 µM
- TGI (SK-MEL-28 melanoma): 25.5 µM
- TGI (M14 melanoma): 15.7 µM
- TGI (NCI/ADR-RES ovarian): 18.9 µM
- TGI (T-47D breast): 20.1 µM
- TGI (RPMI-8226 leukemia): 21.7 µM
- TGI (A549 NSCLC): 17.6 µM
- TGI (OVCAR-5 ovarian): 28.3 µM
- TGI (SF-268 CNS): 24 µM
- TGI (U251 CNS): 15.9 µM
- TGI (HL-60(TB) leukemia): 6.6 µM
- TGI (PC-3 prostate): 14.1 µM
- TGI (MCF7 breast): 18.7 µM
- TGI (MDA-N): 17 µM
- TGI (UO-31 renal): 12.8 µM
- TGI (HS 578T breast): 20.6 µM
- TGI (EKVX NSCLC): 20.3 µM
- TGI (SK-MEL-5 melanoma): 19.1 µM
- TGI (IGROV1 ovarian): 18.2 µM
- TGI (HOP-62 NSCLC): 22.1 µM
- TGI (TK-10 renal): 22.2 µM
- TGI (COLO 205 colon): 36.5 µM
- TGI (SW-620 colon): 25.2 µM
- TGI (HCC-2998 colon): 22.5 µM
- TGI (MDA-MB-231 breast): 30.2 µM
- TGI (MOLT-4 leukemia): 15 µM
- TGI (OVCAR-8 ovarian): 16.7 µM
- TGI (OVCAR-4 ovarian): 25.7 µM
- TGI (SNB-19 CNS): 21.5 µM

Compound: CC(=O)OC(C)(C)N=Nc1ccc(Br)cc1
- TGI (UACC-257 melanoma): 66.2 µM
- TGI (NCI-H23 lung): > 100 µM
- TGI (MDA-MB-435): > 100 µM
- TGI (HOP-92 NSCLC): 67.6 µM
- TGI (SK-OV-3 ovarian): > 100 µM
- TGI (DU-145 prostate): > 100 µM
- TGI (SF-295 CNS): > 60.1 µM
- TGI (786-0 renal): > 100 µM
- TGI (ACHN renal): 23.1 µM
- TGI (SK-MEL-2 melanoma): > 100 µM
- TGI (SR leukemia): 43.3 µM
- TGI (CAKI-1 renal): 48.3 µM
- TGI (CCRF-CEM leukemia): > 78.5 µM
- TGI (BT-549 breast): > 100 µM
- TGI (NCI-H226 lung): > 50.5 µM
- TGI (HCT-116 colon): > 100 µM
- TGI (KM12 colon): > 100 µM
- TGI (NCI-H522 lung): 33.8 µM
- TGI (HCT-15 colon): > 100 µM
- TGI (LOX IMVI melanoma): 33.7 µM
- TGI (OVCAR-3 ovarian): > 100 µM
- TGI (MALME-3M melanoma): > 100 µM
- TGI (SNB-75 CNS): > 91.5 µM
- TGI (NCI-H460 lung): 26 µM
- TGI (RXF 393 renal): > 60.4 µM
- TGI (UACC-62 melanoma): > 100 µM
- TGI (SF-539 CNS): > 100 µM
- TGI (HT29 colon): > 100 µM
- TGI (SN12C renal): > 100 µM
- TGI (K-562 leukemia): 21.4 µM
- TGI (A498 renal): > 100 µM
- TGI (SK-MEL-28 melanoma): > 100 µM
- TGI (M14 melanoma): > 100 µM
- TGI (NCI/ADR-RES ovarian): 76.7 µM
- TGI (T-47D breast): 44.4 µM
- TGI (RPMI-8226 leukemia): 36.2 µM
- TGI (A549 NSCLC): > 100 µM
- TGI (OVCAR-5 ovarian): > 100 µM
- TGI (SF-268 CNS): > 100 µM
- TGI (U251 CNS): > 100 µM
- TGI (HL-60(TB) leukemia): 28 µM
- TGI (PC-3 prostate): > 100 µM
- TGI (MCF7 breast): > 100 µM
- TGI (MDA-N): > 100 µM
- TGI (UO-31 renal): 15.9 µM
- TGI (HS 578T breast): > 100 µM
- TGI (EKVX NSCLC): > 100 µM
- TGI (SK-MEL-5 melanoma): 6.26 µM
- TGI (IGROV1 ovarian): > 100 µM
- TGI (HOP-62 NSCLC): > 100 µM
- TGI (TK-10 renal): > 87.9 µM
- TGI (COLO 205 colon): 1.03 µM
- TGI (SW-620 colon): > 100 µM
- TGI (HCC-2998 colon): > 100 µM
- TGI (MDA-MB-231 breast): > 100 µM
- TGI (MOLT-4 leukemia): > 90.3 µM
- TGI (OVCAR-8 ovarian): 64.1 µM
- TGI (OVCAR-4 ovarian): > 100 µM
- TGI (SNB-19 CNS): > 100 µM

From PubChem BioAssay (NCI)
